Non-standard residues stand in square brackets, D forms with d. Residues, ends and D or L forms follow the SMILES beside them. *: point of attachment. NMeW = CN[C@@H](Cc1c[nH]c2ccccc12)C(=O)O; NMeF = CN[C@@H](Cc1ccccc1)C(=O)O; dTle = CC(C)(C)[C@@H](N)C(=O)O; NMeL = CN[C@@H](CC(C)C)C(=O)O; X3 = O=C(Cc1c[nH]c2ccccc12)*; Orn = NCCC[C@H](N)C(=O)O; PhAc = O=C(Cc1ccccc1)*; Sar = CNCC(=O)O
Experiments:
[1] = biological target: T1, endothelin receptor A (ETA) (Sus scrofa, UniProt Q29010); experiment: Assay of Affinity for Receptor (1): Binding Activity on ETA Receptor; set-up: key to Binding Activity on ET Receptor (R. act.) ETA: relative binding activity; reference cyclic pentapeptide = 1.0; conditions: specific activity, binding activity of cyclo[-D-Glu-Ala-D-aIle-Leu-D-Trp-] taken as 1.0; porcine heart membrane fraction, 125I-labeled endothelin-1, 25° C., 1 hour
T1 construct: A membrane fraction prepared from the porcine heart; from tissue; host or cells: porcine heart membrane fraction
T1 sequence (Q29010 21-427): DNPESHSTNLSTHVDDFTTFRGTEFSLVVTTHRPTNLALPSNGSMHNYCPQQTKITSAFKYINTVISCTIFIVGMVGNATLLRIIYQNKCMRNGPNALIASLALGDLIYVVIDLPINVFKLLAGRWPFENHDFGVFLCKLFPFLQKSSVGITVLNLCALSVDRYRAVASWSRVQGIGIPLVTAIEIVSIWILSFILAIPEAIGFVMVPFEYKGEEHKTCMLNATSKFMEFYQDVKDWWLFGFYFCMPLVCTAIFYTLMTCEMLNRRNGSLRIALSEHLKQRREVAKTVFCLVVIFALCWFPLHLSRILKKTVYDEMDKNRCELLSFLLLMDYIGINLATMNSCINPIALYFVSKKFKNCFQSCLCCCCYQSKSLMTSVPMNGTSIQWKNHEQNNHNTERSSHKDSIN
Protocol: Assay of Affinity for Receptor (1) . . . Binding Activity on ETA Receptor
A membrane fraction prepared from the porcine heart was diluted to 0.15 mg/ml by using a buffer solution for assay, and 100 μl of the resulting suspension of the membrane fraction was poured into each assay tube to use for assay. To this suspension of the membrane fraction was added 2 μl of 5 nM ^125 I-labeled endothelin-1 solution. Further, 3 μl of a test peptide solution was added thereto, followed by incubation at a temperature of 25° C. for 1 hour. Then, the resulting suspension was diluted with 900 μl of the buffer solution for assay cooled with ice, and thereafter separated into a supernatant and a precipitate by centrifugation at 12,000×g for 10 minutes. Cell membranes and an endothelin receptor A (ETA) embedded therein were contained in the precipitate, and radioactive iodine-labeled endothelin combined with the receptor was also recovered in the precipitate. Accordingly, the amount of radioactive iodine-labeled endothelin combined with the endothelin receptor A (ETA) was determined by measuring the amount of radioactive iodine contained in the precipitate with a gamma-ray counter. The cyclic pentapeptide described in Japanese Patent Application No. 2-413828/1990, cyclo[-D-Glu-Ala-D-aIle-Leu-D-Trp-], was used as a control compound. The numerical value of ETA shown in Table 1 is the value of specific activity, taking the binding activity of this cyclic pentapeptide on the receptor A as 1.0. The binding activity (IC50) of this cyclic pentapeptide on the ETA receptor is 2×10^-6 M.

[2] = tested on: ETB receptor (guinea pig kidney crude receptor membrane fraction); experiment: ETB Radio Receptor Assay *2; format: binding; conditions: relative activity (Example 8 given as 100), 125I-endothelin-1, 37° C., 90 minutes
Protocol: ETB Radio Receptor Assay *2
In the endothelin radio receptor assay, guinea pigs' kidneys were used. Guinea pigs (Std Hartrey, male 250 g, Japan SLC Ltd.) were made to have a cerebral concussion and sacrificed by bleeding from carotid arteries to pick up the kidneys and removed fat therefrom to prepare the kidneys. The obtained kidneys were sliced and homogenized by politron homogenizer in 20 ml of 50 mM Tris-HCl buffer [pH 7.4; 20 mM NaHCO3, 0.1 mM PMSF (Phenylmethylsulfonyl Fluoride), 1 mM EDTA (Ethylenediaminetetraacetic acid)] per one kidney. The homogenized kidney was applied to a centrifugation at 1,000×g for 15 minutes and the supernatant was further applied to a centrifugation for 20 minutes at 30,000×g. The resulting precipitate was twice washed with 50 mM Tris-HCl buffer (pH 7.4) containing 0.1 mM PMSF, 1 mM EDTA. The resultant was stored at -80 ° C. as a crude receptor membrane fraction and was used as the suspension in the following buffer when necessary.
740 Bq of ^125 I-endothelin-1 (81.4 TBq/mmol, Du Pont, USA) as a radio ligand, the crude membrane fraction (2.1 μg protein) and samples were added to the following buffer. The reaction was performed at 37° C., for 90 minutes in 0.2 ml of the buffer [50 mM Tris-HCl buffer (pH 7.4) containing 0.1 mM PMSF, 1 mM EDTA, 0.2% bovine serum albumin].
The reaction was stopped by fast filtration on a glass filter (GF/B, Wattman, USA) by Cell Harvestor (290 PHD, Cambridge-Technology, Great Britain), and the filter was three times washed with 50 mM Tris-HCl buffer (pH 7.4). Radio activity remained on the filter was assayed by a gamma counter.

SMILES	Binding Activity on ET Receptor (R. act.) ETA [1]	Binding Activity on ET Receptor (R. act.) ET8 *2 [2]
CC(C)C[C@@H]1NC(=O)[C@@H](CC(C)C)NC(=O)[C@H](CC(=O)O)NC(=O)[C@H](CC(C)C)NC(=O)[C@@H](CC(=O)O)NC(=O)[C@@H](Cc2c[nH]c3ccccc23)NC1=O [Example 18, Cyclo[--D--Asp--Leu--Asp--D--Leu--Leu--D--Trp--]] (cyclo(D[dL]L[dW][dD]L))	13	2.2
CC(C)C[C@@H]1NC(=O)[C@@H](CC(C)C)NC(=O)[C@H](CC(=O)O)NC(=O)[C@H](Cc2ccccc2)NC(=O)[C@@H](CC(=O)O)NC(=O)[C@@H](Cc2c[nH]c3ccccc23)NC1=O [Example 19, Cyclo[--D--Asp--Phe--Asp--D--Leu--Leu--D--Trp--]] (cyclo(D[dL]L[dW][dD]F))	8.3	7.1
CC(C)C[C@@H]1NC(=O)[C@@H](CC(C)C)NC(=O)[C@H](Cc2c[nH]c3ccccc23)NC(=O)[C@H](CC(=O)O)NC(=O)[C@@H](CC(=O)O)NC(=O)[C@@H](Cc2c[nH]c3ccccc23)NC1=O [Example 33, Cyclo[--D--Asp--Asp--Trp--D--Leu--Leu--D--Trp--]] (cyclo(DW[dL]L[dW][dD]))	2.9	5.6
CC(C)C[C@@H]1NC(=O)[C@@H](CC(C)C)NC(=O)[C@H](CC(=O)O)NC(=O)[C@H](Cc2ccccc2)N(C)C(=O)[C@@H](CC(=O)O)NC(=O)[C@@H](Cc2c[nH]c3ccccc23)NC1=O [Example 48, Cyclo[--D--Asp--N--MePhe--Asp--D--Leu--Leu--D--Trp--]] (cyclo(D[dL]L[dW][dD][NMeF]))	2.7	13
CC(C)C[C@@H]1NC(=O)[C@@H](C(C)(C)C)NC(=O)[C@H](CC(=O)O)NC(=O)[C@H](Cc2c[nH]c3ccccc23)NC(=O)[C@@H](CC(=O)O)NC(=O)[C@@H](Cc2c[nH]c3ccccc23)NC1=O [Example 53, cyclo[-D-Asp-Trp-Asp-D-tLeu-Leu-D-Trp-]] (cyclo(D[dTle]L[dW][dD]W))	64	460
CC(C)C[C@@H]1NC(=O)[C@@H](CC(C)C)NC(=O)[C@H](CC(=O)O)NC(=O)[C@H](Cc2c[nH]c3ccccc23)N(C)C(=O)[C@@H](CC(=O)O)NC(=O)[C@@H](Cc2c[nH]c3ccccc23)NC1=O [Example 67, Cyclo[--D--Asp--N--MeTrp--Asp--D--Leu--Leu--D--Trp--]] (cyclo(D[dL]L[dW][dD][NMeW]))	9.1	30
CC(C)C[C@@H]1NC(=O)[C@@H](CC(C)C)NC(=O)[C@H](CC(=O)O)NC(=O)[C@H](CCCNC(=O)Cc2ccccc2)NC(=O)[C@@H](CC(=O)O)NC(=O)[C@@H](Cc2c[nH]c3ccccc23)NC1=O [Example 80, cyclo[-D-Asp-Orn(COCH2 Ph)-AsP-D-Leu-Leu-D-Trp-]] (cyclo(D[dL]L[dW][dD][Orn](PhAc)))	260	380
CC(C)C[C@@H]1NC(=O)[C@@H](CC(C)C)NC(=O)[C@H](CC(=O)O)NC(=O)[C@H](CCCNC(=O)Cc2c[nH]c3ccccc23)NC(=O)[C@@H](CC(=O)O)NC(=O)[C@@H](Cc2c[nH]c3ccccc23)NC1=O [Example 82, cyclo[-D-Asp-Orn(COCH2 -Ind)-Asp-D-Leu-Leu-D-Trp-]] (cyclo(D[dL]L[dW][dD][Orn](X3)))	240	500
CC(C)C[C@@H]1NC(=O)[C@@H](CC(C)C)NC(=O)[C@H](CC(=O)O)NC(=O)[C@H](Cc2c[nH]cn2)NC(=O)[C@@H](CC(=O)O)NC(=O)[C@@H](Cc2c[nH]c3ccccc23)NC1=O [Example 83, Cyclo[--D--Asp--His--Asp--D--Leu--Leu--D--Trp--]] (cyclo(D[dL]L[dW][dD]H))	15	43

Now from value to compound:

Binding Activity on ET Receptor (R. act.) ETA [1]	Binding Activity on ET Receptor (R. act.) ET8 *2 [2]	SMILES
3.7	22	CC(C)C[C@@H]1NC(=O)[C@@H](CC(C)C)NC(=O)[C@H](CC(=O)O)NC(=O)[C@H](C(C)C)NC(=O)[C@@H](CC(=O)O)NC(=O)[C@@H](Cc2c[nH]c3ccccc23)NC1=O [Example 17, Cyclo[--D--Asp--Val--Asp--D--Leu--Leu--D--Trp--]] (cyclo(D[dL]L[dW][dD]V))
1.7	–	CC(C)C[C@@H]1NC(=O)[C@@H](CC(C)C)NC(=O)[C@H](CC(=O)O)NC(=O)[C@H]2CCCN2C(=O)[C@@H](CC(=O)O)NC(=O)[C@@H](Cc2c[nH]c3ccccc23)NC1=O [Example 24, Cyclo[--D--Asp--D--Pro--Asp--D--Leu--Leu--D--Trp--]] (cyclo(D[dL]L[dW][dD][dP]))
4.4	9.1	CC(C)C[C@@H]1NC(=O)[C@@H](CC(C)C)NC(=O)[C@@H]2CCCN2C(=O)[C@H](CC(=O)O)NC(=O)[C@@H](CC(=O)O)NC(=O)[C@@H](Cc2c[nH]c3ccccc23)NC1=O [Example 30, Cyclo[--D--Asp--Asp--Pro--D--Leu--Leu--D--Trp--]] (cyclo(DP[dL]L[dW][dD]))
2.6	1.0	CC(C)C[C@@H]1NC(=O)[C@@H](CC(C)C)NC(=O)[C@H]2CCCN2C(=O)[C@H](CC(=O)O)NC(=O)[C@@H](CC(=O)O)NC(=O)[C@@H](Cc2c[nH]c3ccccc23)NC1=O [Example 31, Cyclo[--D--Asp--Asp--D--Pro--D--Leu--Leu--D--Trp--]] (cyclo(D[dP][dL]L[dW][dD]))
4.0	7.7	CC(C)C[C@@H]1NC(=O)[C@H](CC(=O)O)NC(=O)[C@@H](CC(=O)O)NC(=O)[C@@H](Cc2c[nH]c3ccccc23)NC(=O)[C@H](CC(C)C)NC(=O)[C@@H](CC(C)C)NC1=O [Example 32, Cyclo[--D--Asp--Asp--Leu--D--Leu--Leu--D--Trp--]] (cyclo(DL[dL]L[dW][dD]))
8.1	75	CC(C)C[C@@H]1NC(=O)[C@@H](CC(C)C)NC(=O)[C@H](CC(=O)O)NC(=O)CN(C)C(=O)[C@@H](CC(=O)O)NC(=O)[C@@H](Cc2c[nH]c3ccccc23)NC1=O [Example 46, Cyclo[--D--Asp--Sar--Asp--D--Leu--Leu--D--Trp--]] (cyclo(D[dL]L[dW][dD][Sar]))
6.8	17	CC(C)C[C@@H]1NC(=O)[C@@H](CC(C)C)NC(=O)[C@H](CC(=O)O)NC(=O)[C@H](CC(C)C)N(C)C(=O)[C@@H](CC(=O)O)NC(=O)[C@@H](Cc2c[nH]c3ccccc23)NC1=O [Example 47, Cyclo[--D--Asp--N--MeLeu--Asp--D--Leu--Leu--D--Trp--]] (cyclo(D[dL]L[dW][dD][NMeL]))
